In patent US10288602B2, “Screening method, a kit, a method of treatment and a compound for use in a method of treatement” (ATROGI AB, priority 2013, dated 2019):

Experiments:
L6 myotubes = assay: Glucose uptake (3H-2-deoxy-glucose) in L6 myoblasts and L6 myotubes; assay type: cell-based; conditions: for effect on GPCR and insulin-stimulated glucose uptake: indinavir 100M; for glucose uptake in L6 myoblasts and L6 myotubes / mTORC2 activity represented by glucose uptake: FIG. 2; for mTORC2 activity represented by glucose uptake: L6 myoblasts and myotubes, reference: cells not contacted
Experimental: (§1) Glucose uptake was measured in CHO Glut 4 (Chinese Hamster Ovary cells transfected to overexpress GLUT4) and L6-myotubes grown in 12-well plates using ^3H-2-dexoy-glucose as previously described (Nevzorova et al. 2006, Dehvari et al. 2011, Nevzorova et al. 2002) with minor modifications. L6-cells were differentiated for 7-8 days before the experiment, serum-starved over night in media containing 0.5% fatty-acid free BSA and stimulated with test compounds for totally 2 h, unless otherwise stated. The test 3′ compounds used in the experiment were: N-[5-(4,5-dihydro-1H-imidazol-2yl)-2-hydroxy-5,6,7,8-tetrahydro naphthalen-1-yl] methanesulfonamide hydrobromide (A61603), noradrenaline (NA), insulin, oxymetazoline (oxy), and 5-(methylamino)-2-({(2R,3R,6S,8S,9R,11R)-3,9,11-trimethyl-8-[(S)-1-methyl-2-oxo-2-(l H-pyrrol-2-yl)ethyl]-1,7-dioxaspiro[5.5]undec-2-yl}methyl)-1,3-benzoxazole-4-carboxylic acid (also referred to as Calcimycin) (A23187).
(§2) Inhibitors were added 30 min before stimulation. 25 min before the end of the experiment, cells were washed twice in warm PBS and kept in glucose-free DMEM together with the different drugs for 10 min before 50 nM ^3H-2-deoxy-glucose was added for additional 6 minutes. The reaction was terminated by washing the cells in ice-cold PBS three times. Cells were lysed in 0.2 NaOH for 1 h in 60° C. and the radioactivity detected by liquid scintillation (scintillation buffer Emulsifier Safe, Perking Elmer and analysis is a Tri-Carb® 2800TR from Perkin Elmer).

Akt [1] = assay: Western blot of Akt phosphorylation (T308, S473) in L6 myotubes; assay type: cell-based; conditions: for Akt activity represented by phosphorylation of Akt: FIG. 5, 10 min, 30 min, 2 h, reference: cells not contacted
Experimental: (§3) L6 myotubes (FIG. 5) and CHO GLUT4 cells (FIG. 6) in 12-well plates were used for western blotting. Cells were serum-starved overnight before experiment. Immunoblotting was performed as previously described (Nevzorova et al. 2006, […] et al. 2011, Nevzorova et al. 2002). Primary antibodies (Akt, phospho-Akt T308, phospho-Akt S473, AS 160, GLUT4, phospho-mTOR […], phospho-mTOR […], raptor, and rictor diluted 1:1000) were all from Cell Signaling Technology, Inc and were detected using a secondary antibody (horseradish peroxidase-linked anti-rabbit IgG, from Cell Signaling Technology, Inc) diluted 1:2000 and measured using enhanced chemiluminescence (ECL, Amersham Biosciences).

Akt [2] = assay: Western blot of Akt phosphorylation (T308, S473) in CHO GLUT4 cells; assay type: cell-based, Chinese Hamster; conditions: for Akt p-S473 % basal: CHO GLUT4, 10 min, approximate values from FIG. 6B, insulin, NA, oxy 0.1 μM, A61603 0.01 μM; for Akt activity represented by phosphorylation of Akt: CHO GLUT4 cells, FIG. 6, 10 min, reference: cells not contacted
Experimental: as §3

CHO GLUT4 cells = assay: Glucose uptake (3H-2-deoxy-glucose) in CHO GLUT4 cells; assay type: cell-based, Chinese Hamster; conditions: for mTORC2 activity represented by glucose uptake: CHO GLUT4 cells, reference: cells not contacted
Experimental: as §1, §2

mTORC2 = assay: Western blot of mTOR phosphorylation (S2448, S2481) in L6 myotubes; assay type: cell-based; conditions: for mTORC2 activity represented by phosphorylation of mTORC2: FIG. 13, reference: cells not brought into contact with the compound
Experimental: as §3

AS160 = assay: Western blot of AS160 phosphorylation (T642) in L6 myotubes; assay type: cell-based; conditions: FIG. 7; for Akt activity represented by phophorylation of Akt substrate: AS160 p-T642, L6 myotubes, reference: cells not contacted; for AS160 phosphorylation: L6 myotubes
Experimental: as §3

GLUT4 = GLUT4 in plasma membrane (GLUT4 translocation) in L6 myotubes; assay type: cell-based; conditions: for mTORC2 activity represented by GLUT translocation: FIG. 20, reference: cells not contacted
PIP3 = PIP3 immunofluorescence in permeabilised L6 cells; assay type: cell-based; conditions: FIG. 3
Experimental: PIP3 was visualized in permeabilised L6 cells (0.5% Triton X-100 in water, 15 min) blocked with 10% rat serum in TBS overnight at 4° C. Mouse anti-PIP3 conjugated to a biotinylated goat anti-mouse IgM diluted 1:100) was incubated for 1 h at 37° C., cells washed three times (10% rat serum in TBS), secondary antibody added (streptavidin-Alexa Fluor® 488 1:2000 in TBS, 30 min, 37° C.). Slides were mounted with ProLong® Gold antifade reagent (Invitrogen).

[3] = Glucose tolerance test in Goto-Kakizaki GK-rats; assay type: in vivo, rat; conditions: in drinking water 4 days, 60, 90 and 120 minutes after glucose, vs untreated animals, FIG. 21
Experimental: Goto-Kakizaki GK-rats, showing impaired glucose tolerance form an established model of type 2 diabetes. GK-rats were split into two groups, one of which was treated with the GPCR agonist clenbuterol in the drinking water for 4 days prior to a glucose tolerance test.

skeletal muscle = assay: [3H]-2DG glucose uptake in mouse skeletal muscle in vivo; conditions: WT 129sv mice, 10 mg/kg, 10 min before insulin or isoproterenol 1 mg/kg; FIG. 12
Experimental: After 20 min [^3H]-2DG (130 μCi/kg) was injected. Muscles were sampled 1 h later and lysed in 0.5M NaOH.
Glucose uptake was measured by liquid scintillation counting.

[4] = test system: other members of the PI3K/PIKK family; conditions: at up to 1 μM; Garcia-Martinez et al. 2009; cited from earlier work
rat soleus muscle = assay: 3-O-methylglucose uptake in intact rat soleus muscle ex vivo; conditions: 30 min preincubation, then insulin or isoproterenol 1 h; FIG. 11
Experimental: Soleus muscles were dissected from Sprague-Dawley rats and suspended in Krebs-Henseleit bicarbonate (KHB) buffer (118.5 mM NaCl, 4.7 mM KCl, 1.2 mM KH2PO4, 25 mM NaHCO3, 2.5 mM CaCl2, 1.2 mM MgSO, 5 mM HEPES) in organ baths containing 30 ml KHB containing 5 mM glucose and 15 mM mannitol, bubbled with 95% O2/5% CO2 (pH 7.4) and maintained at 37° C. […] Muscles were rinsed with KHB (20 mM mannitol) for 10 min, then incubated in KHB (8 mM 3-O-methylglucose and 12 mM mannitol with 438 μCi/mmol 3-O-methyl[^3H]glucose (80.2 Ci/mmol; PerkinElmer) and 42 μCi/mmol [^14C] mannitol (58.8 mCi/mmol; PerkinElmer, USA)) for 12 min. Muscles were then rinsed with PBS and frozen in liquid nitrogen, weighed and dissolved in 1 mL of 0.5M NaOH at 60′C. ^3H and ^14C were measured by liquid scintillation counting. Total muscle 3-O-methylglucose and extracellular space were measured as described previously (23). Intracellular 3-O-methylglucose accumulation was calculated by: (Total muscle 3-O-methylglucose)−(extracellular 3-O-methylglucose)=intracellular 3-O-methylglucose. This is then expressed as a rate of 3-O-methylglucose transport per mL of intracellular water per hour.

[5] = L6 myotubes, FIG. 19, cytochalasin B 10 μM

Molecule: C=C1[C@@H](C)[C@H]2[C@H](Cc3ccccc3)NC(=O)[C@]23OC(=O)/C=C/[C@H](O)CCC[C@@H](C)C/C=C/[C@H]3[C@@H]1O [cytochalasin B]
- block of basal glucose uptake (L6 myotubes; L6 myotubes, FIG. 19, cytochalasin B 10 μM, indinavir): ~40%
- effect on GPCR and insulin-stimulated glucose uptake (L6 myotubes; [5]): markedly reduced

Molecule: CC(C)(C)NC(=O)[C@@H]1CN(Cc2cccnc2)CCN1C[C@@H](O)C[C@@H](Cc1ccccc1)C(=O)N[C@H]1c2ccccc2C[C@H]1O [indinavir]
- effect on GPCR and insulin-stimulated glucose uptake (L6 myotubes; [5]): markedly reduced

Molecule: O=C(Nc1cccc(Nc2ncc(Br)c(NCCc3cnc[nH]3)n2)c1)N1CCCC1 [BX-912]
- effect on insulin-mediated T308-Akt phosphorylation (Akt [1]; L6 myotubes, FIG. 8): significantly inhibited
- effect on S473-Akt phosphorylation (Akt [1]; L6 myotubes, insulin, FIG. 8): no effect

Molecule: CCN(CC)CCCCN1c2ccccc2Oc2ccc(Cl)cc21 [Akt inhibitor X]
- effect on insulin-stimulated glucose uptake (L6 myotubes; L6 myotubes, inhibitor 10 μM, FIG. 4): inhibited
- effect on GPCR-mediated glucose uptake (L6 myotubes; L6 myotubes, inhibitor 10 μM, isoproterenol, FIG. 4): not GPCR-mediated glucose uptake

Molecule: Cc1cc(C(C)(C)C)c(O)c(C)c1CC1=NCCN1 [oxymetazoline]
- Akt p-S473 % basal (Akt [2]): 135 % basal
- Akt activity represented by phosphorylation of Akt (Akt [2]): − (6)
- mTORC2 activity represented by glucose uptake (CHO GLUT4 cells; FIG. 1): + (1)

Molecule: Br.CS(=O)(=O)Nc1c(O)ccc2c1CCCC2C1=NCCN1 (centres unmarked) [A61603, N-[5-(4,5-dihydro-1H-imidazol-2yl)-2-hydroxy-5,6,7,8-tetrahydronaphthalen-1-yl] methanesulfonamide hydrobromide]
- Akt p-S473 % basal (Akt [2]): 135 % basal
- Akt activity represented by phosphorylation of Akt (Akt [2]): − (6)
- mTORC2 activity represented by glucose uptake (CHO GLUT4 cells; FIG. 1): + (1)

Molecule: CO[C@H]1C[C@@H]2CC[C@@H](C)[C@@](O)(O2)C(=O)C(=O)N2CCCC[C@H]2C(=O)O[C@H]([C@H](C)C[C@@H]2CC[C@@H](O)[C@H](OC)C2)CC(=O)[C@H](C)/C=C(\C)[C@@H](O)[C@@H](OC)C(=O)[C@H](C)C[C@H](C)/C=C/C=C/C=C/1C [rapamycin]
- effect on insulin mediated or isoproterenol mediated glucose uptake (L6 myotubes; short term treatment, L6 myotubes, FIG. 14): no effect

Molecule: NC[C@H](O)c1ccc(O)c(O)c1 [noradrenaline]
- Akt p-S473 % basal (Akt [2]): 130 % basal
- Akt activity represented by phosphorylation of Akt (Akt [2]): − (6)
- mTORC2 activity represented by glucose uptake (CHO GLUT4 cells; FIG. 1): + (1)
- glucose uptake in CHO glut 4 (CHO GLUT4 cells; FIG. 1): increases

Molecule: insulin
- Akt activity represented by phosphorylation of Akt (Akt [1]; L6 myotubes): + (5, 6)
- Akt phosphorylation at T308 and S473 (Akt [1]; all time points examined, FIG. 5, FIG. 6): increased
- Akt p-S473 % basal (Akt [2]): 170 % basal
- Akt activity represented by phosphorylation of Akt (Akt [2]): + (5, 6)
- phosphorylation of mTOR (sites S2448, S2481) (mTORC2; FIG. 13): phosphorylation of mTOR at both S2448 and S2481
- mTORC2 activity represented by phosphorylation of mTORC2 (mTORC2): + (13)
- Akt activity represented by phophorylation of Akt substrate (AS160): + (7)
- AS160 phosphorylation (AS160): phosphorylated
- mTORC2 activity represented by GLUT translocation (GLUT4): + (20)
- PIP3 content (PIP3): increased
- glucose uptake in L6 myoblasts and L6 myotubes (L6 myotubes): increased
- mTORC2 activity represented by glucose uptake (L6 myotubes): + (2)

Molecule: CC(C)(C)NCC(O)c1cc(Cl)c(N)c(Cl)c1 (centres unmarked) [clenbuterol]
- blood glucose levels in glucose tolerance test [3]: greatly improved

Molecule: COc1ccc(-c2ccc3c(N4CCOCC4)nc(N4C[C@@H](C)O[C@@H](C)C4)nc3n2)cc1CO [KU0063794]
- effect on insulin-stimulated Akt phosphorylation at S473 (Akt [1]; 100 nM, L6 myotubes, FIG. 9): decreased
- effect on insulin-stimulated phosphorylation of Akt at T308 (Akt [1]; 100 nM, L6 myotubes, FIG. 9): no effect
- effect on insulin and GPCR stimulated glucose-uptake in skeletal muscle in-vivo (skeletal muscle): inhibits
- effect on insulin- and GPCR-stimulated mTOR phosphorylation at S2448 and S2481 (mTORC2; FIG. 13): abolished
- inhibition of other members of the PI3K/PIKK family [4]: does not inhibit
- effect on insulin and GPCR stimulated GLUT4 translocation (GLUT4; FIG. 20): significantly inhibits
- effect on GPCR stimulated glucose-uptake (CHO GLUT4 cells; CHO glut 4, FIG. 10B): inhibits
- effect on insulin and GPCR stimulated glucose-uptake in intact soleus muscle ex-vivo (rat soleus muscle): inhibits
- effect on GPCR stimulated glucose-uptake (L6 myotubes; L6 myotubes, FIG. 10A): inhibits

Molecule: CC(C)NCC(O)c1ccc(O)c(O)c1 (centres unmarked) [isoproterenol]
- Akt activity represented by phosphorylation of Akt (Akt [1]; L6 myotubes): − (5)
- phosphorylation of mTOR (sites S2448, S2481) (mTORC2; FIG. 13): phosphorylation only at S2481
- mTORC2 activity represented by phosphorylation of mTORC2 (mTORC2): + (13)
- Akt activity represented by phophorylation of Akt substrate (AS160): − (7)
- AS160 phosphorylation (AS160): not isoproterenol treatment
- mTORC2 activity represented by GLUT translocation (GLUT4): + (20)
- mTORC2 activity represented by glucose uptake (CHO GLUT4 cells; FIG. 1): + (1, 2)
- PIP3 content (PIP3): not isoproterenol increased PIP3 content
- glucose uptake in L6 myoblasts and L6 myotubes (L6 myotubes): increased
- mTORC2 activity represented by glucose uptake (L6 myotubes): + (1, 2)
